Measurements reported in patent US11434258B2, “Compounds (immunorhelins)” (ISR IMMUNE SYSTEM REGULATION HOLDING AB (PUBL), priority 2017, dated 2022).
Non-standard residues stand in square brackets, D forms with d. Residues, ends and D or L forms follow the SMILES beside them. *: point of attachment. pGlu = O=C1CC[C@@H](C(=O)O)N1; tBu = CC(C)(C)*

What was measured:
GnRHR = target: T1, GnRHR (Homo sapiens, UniProt P30968); test: Calcium assay in CHO-K1 cells (Genscript), FLIPR; assay type: cell-based; details: CHO-K1/GnRHR/Ga15 cells, relative to agonist control, read-out: GNRHR Stimulation at 1 μM
T1 construct: host or cells: CHO-K1 (CHO-K1/GnRHR/Ga15)
T1 sequence (P30968 1-328): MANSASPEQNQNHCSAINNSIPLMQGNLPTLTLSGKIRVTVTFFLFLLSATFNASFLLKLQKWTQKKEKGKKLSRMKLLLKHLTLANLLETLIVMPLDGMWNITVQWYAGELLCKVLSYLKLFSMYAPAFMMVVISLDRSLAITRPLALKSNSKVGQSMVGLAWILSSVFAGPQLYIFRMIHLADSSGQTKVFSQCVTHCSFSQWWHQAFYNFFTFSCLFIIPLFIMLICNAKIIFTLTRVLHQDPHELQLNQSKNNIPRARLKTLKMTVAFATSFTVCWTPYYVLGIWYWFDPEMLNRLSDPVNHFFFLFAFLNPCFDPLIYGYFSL
Protocol: Test article sample solutions were dissolved in HBSS buffer (with 20 mM HEPES buffer, pH 7.4) to form the 5× working solution. FLIPR® Calcium 4 assay kit from Molecular devices (R8141) was used as required. In brief, CHO-K1 cells expressing GnRHR (CHO-K1/GnRHR/Ga15, Genscript accession NM_000406) were respectively cultured in the 10-cm dishes and maintained at 37° C./5% CO2. CHO-K1 cells expressing GNRHR were respectively seeded in a 384-well black-wall, clear-bottom plate at a density of 15,000 cells per well in 20 μl of growth medium about 18 hours prior to the day of experiment and maintained at 37° C./5% CO2. Then, 20 μl of dye loading solution was added into the wells and the plates were subsequently placed into a 37° C. incubator for 60 minutes, followed by a 15 minutes' incubation at room temperature. At last, 10 μl of compounds or control agonist were added into respective wells of the assay plate during reading in FLIPR. The plate containing 5× compound and control agonist solution was placed in FLIPR. Solutions were added into the cell plate automatically at the 20 seconds and the fluorescence signal was monitored for an additional 100 seconds (21 sec to 120 sec.). Data were recorded by ScreenWorks (version 3.1) as FMD files with FLIPR and stored on the GenScript computer network for off-line analysis. Data acquisition and analyses was performed using ScreenWorks (version 3.1) program and exported to Excel. The average value of the first 20 seconds' reading was calculated as the baseline and the relative fluorescent units (ΔRFU) intensity values were calculated by subtracting the average value of baseline from the maximum fluorescent units (21 s to 120 s).
The % Stimulation was calculated with the following equation: % Stimulation=(ΔRFUCompound−ΔRFUBackground)/(ΔRFUAgonist control−ΔRFUBackground)×100
Dose response curves were fitted with four-parameter-logistic-equation by the software GraphPad Prism 6.
Equation: four parameter logistic equation. Y=Bottom+(Top-Bottom)/(1+10^((Log EC50−X)×Hillslope))
X is the logarithm of concentration. Y is the response.

[1] = Stability in aqueous media (PBS pH 7.4); assay type: physicochemical; set-up: unit not given here; details: phosphate buffer solution (PBS); PBS pH 7.4, 37° C., samples at T=0, 4, 24, 96 h; read-out: Stability grading (t1/2)
From the text: LC/MS data was collected for compound identity.

SMILES	activation at 1 µM (GnRHR) [%]	half-life at 0.2 mg/ml [1]
CCNC(=O)[C@@H]1CCCN1C(=O)[C@H](CCCNC(=N)N)NC(=O)[C@H](CC(C)C)NC(=O)[C@@H](COC(C)(C)C)NC(=O)[C@H](Cc1ccc(O)cc1)NC(=O)[C@H](CO)NC(=O)[C@H](Cc1c[nH]c2ccccc12)NC(=O)[C@H](Cc1cnc[nH]1)NC(=O)[C@@H]1CCC(=O)N1 [Buserelin, reference compound]	94	
CCNC(=O)[C@@H]1CCCN1C(=O)[C@H](CCCNC(=N)N)NC(=O)[C@H](Cc1c[nH]c2ccccc12)NC(=O)[C@@H](COC(C)(C)C)NC(=O)[C@H](Cc1ccc(O)cc1)NC(=O)[C@H](CO)NC(=O)[C@H](Cc1c[nH]c2ccccc12)NC(=O)[C@H](Cc1c[nH]cn1)NC(=O)[C@@H]1CCC(=O)N1 [Compound 8, pGlu-His-Trp-Ser-Tyr-D-Ser(tBu)-Trp-Arg-Pro-NHEt] ([pGlu]HWSY[dS](tBu)WRP-NHEt)	86	> 96
CCNC(=O)[C@@H]1CCCN1C(=O)[C@H](Cc1ccc(O)cc1)NC(=O)[C@H](Cc1c[nH]c2ccccc12)NC(=O)[C@@H](COC(C)(C)C)NC(=O)[C@H](Cc1ccc(O)cc1)NC(=O)[C@H](CO)NC(=O)[C@H](Cc1c[nH]c2ccccc12)NC(=O)[C@H](Cc1c[nH]cn1)NC(=O)[C@@H]1CCC(=O)N1 [Compound 12, pGlu-His-Trp-Ser-Tyr-D-Ser(tBu)-Trp-Tyr-Pro-NHEt] ([pGlu]HWSY[dS](tBu)WYP-NHEt)	80	> 96
CCNC(=O)[C@@H]1CCCN1C(=O)[C@H](Cc1ccc(O)cc1)NC(=O)[C@H](Cc1c[nH]c2ccccc12)NC(=O)[C@@H](COC(C)(C)C)NC(=O)[C@H](Cc1c[nH]cn1)NC(=O)[C@H](CO)NC(=O)[C@H](Cc1c[nH]c2ccccc12)NC(=O)[C@H](Cc1c[nH]cn1)NC(=O)[C@@H]1CCC(=O)N1 [Compound 13, pGlu-His-Trp-Ser-His-D-Ser(tBu)-Trp-Tyr-Pro-NHEt] ([pGlu]HWSH[dS](tBu)WYP-NHEt)	87	> 96
CC(C)C[C@H](NC(=O)[C@@H](Cc1c[nH]c2ccccc12)NC(=O)[C@H](Cc1ccc(O)cc1)NC(=O)[C@H](CO)NC(=O)[C@H](Cc1c[nH]c2ccccc12)NC(=O)[C@H](Cc1c[nH]cn1)NC(=O)[C@@H]1CCC(=O)N1)C(=O)N[C@@H](Cc1ccc(O)cc1)C(=O)N1CCC[C@H]1C(=O)NCC(N)=O [Compound 14, pGlu-His-Trp-Ser-Tyr-D-Trp-Leu-Tyr-Pro-Gly-amide] ([pGlu]HWSY[dW]LYPG-NH2)	78	> 96
CC(C)C[C@H](NC(=O)CNC(=O)[C@H](Cc1ccc(O)cc1)NC(=O)[C@H](CO)NC(=O)[C@H](Cc1c[nH]c2ccccc12)NC(=O)[C@H](Cc1cnc[nH]1)NC(=O)[C@@H]1CCC(=O)N1)C(=O)N[C@@H](CCCNC(=N)N)C(=O)N1CCC[C@H]1C(=O)NCC(N)=O [Gonadorelin, reference compound]	102	
CC(C)C[C@H](NC(=O)[C@@H](COC(C)(C)C)NC(=O)[C@H](Cc1ccc(O)cc1)NC(=O)[C@H](CO)NC(=O)[C@H](Cc1c[nH]c2ccccc12)NC(=O)[C@H](Cc1cnc[nH]1)NC(=O)[C@@H]1CCC(=O)N1)C(=O)N[C@@H](CCCNC(=N)N)C(=O)N1CCC[C@H]1C(=O)NNC(N)=O [Goserelin]	99	
CCNC(=O)[C@@H]1CCCN1C(=O)[C@H](CCCNC(=N)N)NC(=O)[C@H](CC(C)C)NC(=O)[C@@H](CC(C)C)NC(=O)[C@H](Cc1ccc(O)cc1)NC(=O)[C@H](CO)NC(=O)[C@H](Cc1c[nH]c2ccccc12)NC(=O)[C@H](Cc1c[nH]cn1)NC(=O)[C@@H]1CCC(=O)N1 [Leuprorelin, reference compound]	107	
CC(C)C[C@H](NC(=O)[C@@H](Cc1ccc2ccccc2c1)NC(=O)[C@H](Cc1ccc(O)cc1)NC(=O)[C@H](CO)NC(=O)[C@H](Cc1c[nH]c2ccccc12)NC(=O)[C@H](Cc1c[nH]cn1)NC(=O)[C@@H]1CCC(=O)N1)C(=O)N[C@@H](CCCNC(=N)N)C(=O)N1CCC[C@H]1C(=O)NCC(N)=O [Nafarelin, reference compound]	100	
